Experimental data reported in paper PMC7241567 (Journal of Enzyme Inhibition and Medicinal Chemistry, 2020).

Assays:
Type in all cases: biochemical
[1] = target: T1, Aurora A (Homo sapiens, UniProt O14965); test: Reaction Biology Kinase HotSpot radiometric kinase assay
T1 construct: purchased Reaction Biology Corp. (Kinase HotSpot service)

[2] = target: T2, AXL (Homo sapiens, UniProt P30530); test: as above
T2 construct: purchased Reaction Biology Corp. (Kinase HotSpot service)

[3] = target: T3, BRAF (V599E) (Homo sapiens, UniProt P15056, V600E); test: as above
T3 construct: purchased Reaction Biology Corp. (Kinase HotSpot service)

[4] = target: T4, BTK (Homo sapiens, UniProt Q06187); test: as above
T4 construct: purchased Reaction Biology Corp. (Kinase HotSpot service)

[5] = target: T5, c-Kit (Homo sapiens, UniProt P10721); test: as above
T5 construct: purchased Reaction Biology Corp. (Kinase HotSpot service)

[6] = target: T6, c-Src (Homo sapiens, UniProt P12931); test: as above
T6 construct: purchased Reaction Biology Corp. (Kinase HotSpot service)

[7] = target: T7, CAMKK1 (Homo sapiens, UniProt Q8N5S9); test: as above
T7 construct: purchased Reaction Biology Corp. (Kinase HotSpot service)

[8] = target: T8, CDK4/cyclin D1 (Homo sapiens, UniProt P11802); test: as above
T8 construct: purchased Reaction Biology Corp. (Kinase HotSpot service)

[9] = target: T9, EGFR (Homo sapiens, UniProt P00533); test: as above
T9 construct: purchased Reaction Biology Corp. (Kinase HotSpot service)

[10] = target: T10, FGFR3 (Homo sapiens, UniProt P22607); test: as above
T10 construct: purchased Reaction Biology Corp. (Kinase HotSpot service)

[11] = target: T11, FLT1/VEGFR1 (Homo sapiens, UniProt P17948); test: as above
T11 construct: purchased Reaction Biology Corp. (Kinase HotSpot service)

[12] = target: FLT3-ITD (Homo sapiens, UniProt P36888, ITD); test: as above
[13] = target: T12, FMS (Homo sapiens, UniProt P07333); test: as above
T12 construct: purchased Reaction Biology Corp. (Kinase HotSpot service)

[14] = target: T13, FYN (Homo sapiens, UniProt P06241); test: as above
T13 construct: purchased Reaction Biology Corp. (Kinase HotSpot service)

[15] = target: T14, GSK3b (Homo sapiens, UniProt P49841); test: as above
T14 construct: purchased Reaction Biology Corp. (Kinase HotSpot service)

[16] = target: T15, JAK3 (Homo sapiens, UniProt P52333); test: as above
T15 construct: purchased Reaction Biology Corp. (Kinase HotSpot service)

[17] = target: T16, JNK3 (Homo sapiens, UniProt P53779); test: as above
T16 construct: purchased Reaction Biology Corp. (Kinase HotSpot service)

[18] = target: T17, LCK (Homo sapiens, UniProt P06239); test: as above
T17 construct: purchased Reaction Biology Corp. (Kinase HotSpot service)

[19] = target: T18, LYN (Homo sapiens, UniProt P07948); test: as above
T18 construct: purchased Reaction Biology Corp. (Kinase HotSpot service)

[20] = target: P38a/MAPK14 (Homo sapiens, UniProt Q16539); test: as above
[21] = target: T19, PKA (Homo sapiens, UniProt P17612); test: as above
T19 construct: purchased Reaction Biology Corp. (Kinase HotSpot service)

[22] = target: T20, RIPK3 (Homo sapiens, UniProt Q9Y572); test: as above; settings: 10 µM
T20 construct: purchased Reaction Biology Corp. (Kinase HotSpot service)

[23] = target: T21, RON/MST1R (Homo sapiens, UniProt Q04912); test: as above
T21 construct: purchased Reaction Biology Corp. (Kinase HotSpot service)

[24] = target: T22, SYK (Homo sapiens, UniProt P43405); test: as above
T22 construct: purchased Reaction Biology Corp. (Kinase HotSpot service)

[25] = target: T23, FLT3 (F594_R595 ins R) (Homo sapiens, UniProt P36888, INS594R); test: Enzymatic activity against FLT3 mutants
T23 construct: purchased Reaction Biology Corp. (Kinase HotSpot service)

[26] = target: T24, FLT3 (Y591_V592 ins VDFREYEYD) (Homo sapiens, UniProt P36888, INS591VDFREYEYD); test: Enzymatic activity against FLT3 mutants
T24 construct: purchased Reaction Biology Corp. (Kinase HotSpot service)

[27] = target: T25, FLT3 (D835Y) (Homo sapiens, UniProt P36888, D835Y); test: Enzymatic activity against FLT3 mutants
T25 construct: purchased Reaction Biology Corp. (Kinase HotSpot service)
T25 sequence (P36888 27-993 D835Y): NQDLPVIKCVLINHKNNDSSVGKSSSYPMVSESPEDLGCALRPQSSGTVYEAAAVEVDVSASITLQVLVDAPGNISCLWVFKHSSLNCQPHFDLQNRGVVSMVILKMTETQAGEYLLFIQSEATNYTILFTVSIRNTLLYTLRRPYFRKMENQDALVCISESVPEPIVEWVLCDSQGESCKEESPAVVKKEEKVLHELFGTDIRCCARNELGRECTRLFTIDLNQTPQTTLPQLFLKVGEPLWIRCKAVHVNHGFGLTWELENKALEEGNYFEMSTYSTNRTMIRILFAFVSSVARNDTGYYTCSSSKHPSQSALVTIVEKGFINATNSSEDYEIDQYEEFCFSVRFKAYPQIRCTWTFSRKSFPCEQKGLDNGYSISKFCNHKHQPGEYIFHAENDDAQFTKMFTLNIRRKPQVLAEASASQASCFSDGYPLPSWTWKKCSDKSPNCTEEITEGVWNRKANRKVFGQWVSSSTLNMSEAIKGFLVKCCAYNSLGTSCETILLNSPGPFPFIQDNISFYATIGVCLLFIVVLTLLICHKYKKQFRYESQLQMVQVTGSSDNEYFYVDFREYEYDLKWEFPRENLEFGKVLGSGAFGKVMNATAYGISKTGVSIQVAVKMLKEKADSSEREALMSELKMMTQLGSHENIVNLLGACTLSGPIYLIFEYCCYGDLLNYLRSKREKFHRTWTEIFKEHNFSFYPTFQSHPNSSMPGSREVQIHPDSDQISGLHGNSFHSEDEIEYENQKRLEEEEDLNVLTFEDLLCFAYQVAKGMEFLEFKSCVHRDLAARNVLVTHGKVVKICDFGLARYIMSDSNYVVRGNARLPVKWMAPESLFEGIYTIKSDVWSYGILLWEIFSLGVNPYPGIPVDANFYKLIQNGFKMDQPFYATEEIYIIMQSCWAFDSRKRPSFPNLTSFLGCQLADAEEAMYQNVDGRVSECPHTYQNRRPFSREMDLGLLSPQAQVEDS

T9 sequence (P00533 25-1210): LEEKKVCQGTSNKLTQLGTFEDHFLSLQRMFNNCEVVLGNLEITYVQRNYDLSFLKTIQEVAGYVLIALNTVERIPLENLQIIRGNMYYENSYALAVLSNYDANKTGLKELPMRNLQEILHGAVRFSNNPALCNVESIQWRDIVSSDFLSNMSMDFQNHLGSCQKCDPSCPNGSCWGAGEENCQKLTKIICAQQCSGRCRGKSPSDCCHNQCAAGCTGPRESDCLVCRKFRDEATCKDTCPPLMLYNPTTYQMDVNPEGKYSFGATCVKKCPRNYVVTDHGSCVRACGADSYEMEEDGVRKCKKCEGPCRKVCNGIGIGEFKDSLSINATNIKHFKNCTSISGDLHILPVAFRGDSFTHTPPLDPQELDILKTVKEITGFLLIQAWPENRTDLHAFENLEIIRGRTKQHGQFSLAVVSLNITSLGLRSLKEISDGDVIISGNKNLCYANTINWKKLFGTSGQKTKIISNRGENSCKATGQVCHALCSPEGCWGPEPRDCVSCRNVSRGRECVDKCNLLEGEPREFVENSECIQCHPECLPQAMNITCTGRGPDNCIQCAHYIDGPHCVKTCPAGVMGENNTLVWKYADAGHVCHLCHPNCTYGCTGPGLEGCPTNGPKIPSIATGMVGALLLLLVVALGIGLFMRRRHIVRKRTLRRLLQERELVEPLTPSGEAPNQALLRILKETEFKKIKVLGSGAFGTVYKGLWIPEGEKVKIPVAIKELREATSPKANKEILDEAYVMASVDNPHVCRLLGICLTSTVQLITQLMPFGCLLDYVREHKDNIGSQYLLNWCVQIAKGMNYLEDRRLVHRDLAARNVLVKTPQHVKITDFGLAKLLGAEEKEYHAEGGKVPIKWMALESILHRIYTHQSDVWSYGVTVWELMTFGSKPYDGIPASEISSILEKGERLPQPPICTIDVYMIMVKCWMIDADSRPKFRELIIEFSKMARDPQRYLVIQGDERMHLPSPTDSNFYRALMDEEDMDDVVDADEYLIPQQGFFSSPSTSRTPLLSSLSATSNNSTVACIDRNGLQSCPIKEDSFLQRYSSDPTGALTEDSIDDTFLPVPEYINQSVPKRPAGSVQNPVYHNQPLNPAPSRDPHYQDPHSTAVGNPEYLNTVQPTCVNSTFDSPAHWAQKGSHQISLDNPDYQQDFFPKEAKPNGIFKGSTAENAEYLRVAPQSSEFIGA
T14 sequence (P49841 whole entry): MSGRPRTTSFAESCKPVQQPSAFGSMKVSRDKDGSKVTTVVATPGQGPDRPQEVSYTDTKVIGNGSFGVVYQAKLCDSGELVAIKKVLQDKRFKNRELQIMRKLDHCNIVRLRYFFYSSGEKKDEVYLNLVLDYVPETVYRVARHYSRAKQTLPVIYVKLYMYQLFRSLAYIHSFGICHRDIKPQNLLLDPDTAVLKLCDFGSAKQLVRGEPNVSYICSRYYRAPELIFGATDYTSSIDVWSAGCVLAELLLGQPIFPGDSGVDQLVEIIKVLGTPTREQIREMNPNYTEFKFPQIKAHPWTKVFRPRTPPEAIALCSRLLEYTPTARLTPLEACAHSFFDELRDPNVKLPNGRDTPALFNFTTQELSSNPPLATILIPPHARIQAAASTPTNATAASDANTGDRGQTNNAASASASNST
T13 sequence (P06241 whole entry): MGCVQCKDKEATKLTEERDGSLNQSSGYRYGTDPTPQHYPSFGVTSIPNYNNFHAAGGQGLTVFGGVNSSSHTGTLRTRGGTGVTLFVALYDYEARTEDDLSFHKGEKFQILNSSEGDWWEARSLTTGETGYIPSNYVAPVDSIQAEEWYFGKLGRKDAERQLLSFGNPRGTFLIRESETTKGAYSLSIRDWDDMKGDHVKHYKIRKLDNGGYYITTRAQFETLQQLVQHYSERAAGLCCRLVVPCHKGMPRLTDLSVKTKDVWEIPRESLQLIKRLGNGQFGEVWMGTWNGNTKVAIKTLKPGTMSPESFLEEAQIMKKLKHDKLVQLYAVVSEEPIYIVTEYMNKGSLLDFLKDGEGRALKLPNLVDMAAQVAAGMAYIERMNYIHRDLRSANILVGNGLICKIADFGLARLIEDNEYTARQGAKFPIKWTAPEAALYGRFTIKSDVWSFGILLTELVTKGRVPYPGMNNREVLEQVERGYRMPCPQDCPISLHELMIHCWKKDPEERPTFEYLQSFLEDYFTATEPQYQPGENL
T2 sequence (P30530 26-894): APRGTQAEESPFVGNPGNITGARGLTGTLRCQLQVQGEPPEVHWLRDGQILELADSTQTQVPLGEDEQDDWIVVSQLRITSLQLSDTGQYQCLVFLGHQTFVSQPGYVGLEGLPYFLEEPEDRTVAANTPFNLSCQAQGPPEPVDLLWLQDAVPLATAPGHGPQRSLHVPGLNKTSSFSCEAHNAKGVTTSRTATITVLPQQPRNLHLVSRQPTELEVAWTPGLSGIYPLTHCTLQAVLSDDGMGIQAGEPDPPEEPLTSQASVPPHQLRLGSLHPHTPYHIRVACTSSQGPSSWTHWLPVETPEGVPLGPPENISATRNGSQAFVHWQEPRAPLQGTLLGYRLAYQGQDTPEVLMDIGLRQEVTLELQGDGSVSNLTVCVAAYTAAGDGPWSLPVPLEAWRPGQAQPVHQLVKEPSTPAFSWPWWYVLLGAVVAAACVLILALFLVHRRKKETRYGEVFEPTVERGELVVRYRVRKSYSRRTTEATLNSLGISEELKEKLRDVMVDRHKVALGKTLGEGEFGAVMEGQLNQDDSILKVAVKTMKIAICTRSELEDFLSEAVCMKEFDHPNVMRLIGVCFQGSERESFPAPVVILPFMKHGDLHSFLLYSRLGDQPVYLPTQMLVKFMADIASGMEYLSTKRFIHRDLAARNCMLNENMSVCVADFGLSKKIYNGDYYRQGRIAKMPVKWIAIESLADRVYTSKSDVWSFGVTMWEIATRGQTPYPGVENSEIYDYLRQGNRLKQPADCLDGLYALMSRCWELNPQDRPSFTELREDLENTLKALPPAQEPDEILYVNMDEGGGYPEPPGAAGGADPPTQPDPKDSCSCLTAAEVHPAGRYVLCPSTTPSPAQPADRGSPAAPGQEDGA
P38a/MAPK14, sequence (Q16539 whole entry): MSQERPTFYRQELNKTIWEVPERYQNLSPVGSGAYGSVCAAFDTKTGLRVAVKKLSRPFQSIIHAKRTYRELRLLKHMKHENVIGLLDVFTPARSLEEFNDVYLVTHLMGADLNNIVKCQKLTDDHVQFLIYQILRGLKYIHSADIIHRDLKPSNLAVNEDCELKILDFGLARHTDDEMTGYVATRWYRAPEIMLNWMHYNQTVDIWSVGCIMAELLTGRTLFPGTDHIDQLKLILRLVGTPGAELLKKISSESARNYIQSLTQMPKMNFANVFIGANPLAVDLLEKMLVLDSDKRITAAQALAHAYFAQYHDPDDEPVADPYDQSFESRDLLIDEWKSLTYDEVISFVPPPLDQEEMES
T21 sequence (Q04912 25-1400): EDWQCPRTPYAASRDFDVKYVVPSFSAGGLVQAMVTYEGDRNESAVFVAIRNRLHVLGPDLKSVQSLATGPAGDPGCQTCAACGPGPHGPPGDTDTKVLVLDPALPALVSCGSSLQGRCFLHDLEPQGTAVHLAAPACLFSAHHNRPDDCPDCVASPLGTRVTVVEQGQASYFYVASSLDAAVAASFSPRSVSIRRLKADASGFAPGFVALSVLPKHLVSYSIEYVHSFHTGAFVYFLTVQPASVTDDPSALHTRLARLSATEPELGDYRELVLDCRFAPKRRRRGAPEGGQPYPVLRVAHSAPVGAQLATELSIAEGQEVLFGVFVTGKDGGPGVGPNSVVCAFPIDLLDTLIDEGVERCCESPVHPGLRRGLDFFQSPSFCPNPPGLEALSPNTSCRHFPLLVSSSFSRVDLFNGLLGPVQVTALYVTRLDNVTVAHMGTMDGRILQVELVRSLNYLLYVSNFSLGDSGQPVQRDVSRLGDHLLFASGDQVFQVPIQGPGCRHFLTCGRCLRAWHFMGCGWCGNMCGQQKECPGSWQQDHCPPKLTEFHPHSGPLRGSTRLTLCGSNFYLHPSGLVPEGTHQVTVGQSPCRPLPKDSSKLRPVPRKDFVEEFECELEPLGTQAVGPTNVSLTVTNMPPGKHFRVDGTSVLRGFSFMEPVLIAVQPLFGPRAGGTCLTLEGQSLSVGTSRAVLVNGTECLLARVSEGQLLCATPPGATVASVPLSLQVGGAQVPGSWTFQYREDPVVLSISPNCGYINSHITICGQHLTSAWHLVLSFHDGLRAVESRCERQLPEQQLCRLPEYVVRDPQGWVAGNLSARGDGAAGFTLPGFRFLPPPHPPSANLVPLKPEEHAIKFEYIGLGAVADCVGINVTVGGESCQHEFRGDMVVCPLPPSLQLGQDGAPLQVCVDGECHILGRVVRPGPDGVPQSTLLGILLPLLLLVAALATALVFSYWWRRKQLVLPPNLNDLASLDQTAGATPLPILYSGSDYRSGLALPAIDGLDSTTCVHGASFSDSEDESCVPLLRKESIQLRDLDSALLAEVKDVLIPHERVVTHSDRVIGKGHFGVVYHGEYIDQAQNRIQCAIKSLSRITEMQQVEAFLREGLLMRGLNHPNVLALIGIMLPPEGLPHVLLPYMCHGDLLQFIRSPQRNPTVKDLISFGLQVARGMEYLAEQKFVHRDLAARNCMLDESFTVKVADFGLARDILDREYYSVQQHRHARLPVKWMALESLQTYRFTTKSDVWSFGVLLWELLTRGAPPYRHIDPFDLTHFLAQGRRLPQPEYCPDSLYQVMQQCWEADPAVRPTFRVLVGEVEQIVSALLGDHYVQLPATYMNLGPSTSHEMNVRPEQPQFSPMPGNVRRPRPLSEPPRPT

With `Cc1oncc1C(=O)Nc1ccc2cnc(-c3cc(N4CCN(C)CC4)cc(C(F)(F)F)c3)nc2c1` [Compound 7d, 5-methyl-N-(2-(3-(4-methylpiperazin-1-yl)-5-(trifluoromethyl)phenyl)quinazolin-7-yl)isoxazole-4-carboxamide] the inhibition at 10 µM [1] was 20.1%, the inhibition at 10 µM [2] was 21.2% and the inhibition at 10 µM [3] was 5.19%. The inhibition at 10 µM [4] was 17.5%, the inhibition at 10 µM [5] was 0% and the inhibition at 10 µM [6] was 14.6%. It also gave an inhibition at 10 µM [7] of 0%, an inhibition at 10 µM [8] of 3.01% and an inhibition at 10 µM [9] of 0%. The inhibition at 10 µM [10] was 1%, the inhibition at 10 µM [11] was 5.23% and the inhibition at 10 µM ([12]; FLT3-ITD, 10 µM) was 95.2%. It also gave an IC50 ([12]; read-out: IC50 against FLT3-ITD) of 301 nM, an inhibition at 10 µM [13] of 5.49% and an inhibition at 10 µM [14] of 19%. For the same compound, the inhibition at 10 µM [15] was 8.06%, the inhibition at 10 µM [16] was 0.8% and the inhibition at 10 µM [17] was 19.5%. For the same compound, the inhibition at 10 µM [18] was 19.7%, the inhibition at 10 µM [19] was 20.5% and the inhibition at 10 µM [20] was 0%. It also gave an inhibition at 10 µM [21] of 2.5%, an inhibition at 10 µM [22] of 12.8% and an inhibition at 10 µM [23] of 13.5%. It also gave an inhibition at 10 µM [24] of 22.4%, an IC50 [25] of 524 nM and an IC50 [26] of 728 nM. For the same compound, the “decrease of activity against FLT3-TKD (D835Y) compared to FLT3 wild type” value [27] was “about 2 fold”, the IC50 ([27]; FLT3 (D835Y)) was 228 nM and the IC50 ([27]; FLT3-TKD (D835Y)) was 228 nM.
